In the assay the target is Nucleic Acid. Briefly: Dissociation constant using ethidium-bromide displacement test. It is filed as nucleic-acid assay.

Molecules are shown by their SMILES. Numbered stars: 1 amine (or outer) side, 2 acyl side, 3 side chain; on linkers, the order of the positions; unused ones are H or OH. Square brackets hold non-standard residues; d marks the D form. Peptide text beside a SMILES is read from it. Ala(2,4-dioxoquinazolin-3-yl) = N[C@@H](Cn1c(=O)[nH]c2ccccc2c1=O)C(=O)O; Ala(uracil-1-yl) = N[C@@H](Cn1ccc(=O)[nH]c1=O)C(=O)O; X2 = Cc1cn(C[C@H](N[*:1])C(=O)[*:2])c(=O)[nH]c1=O; X3 = Nc1ccn(C[C@H](N[*:1])C(=O)[*:2])c(=O)n1; X1 = Nc1ncnc2c1ncn2C[C@H](N[*:1])C(=O)[*:2]; 2Thi = N[C@@H](Cc1cccs1)C(=O)O; Sar = CNCC(=O)O

As usually defined, the Kd is the concentration at which binding is half-saturated. Read a low Kd as higher affinity.

`CC(=O)N[C@@H](CCCN=C(N)N)C(=O)N[C@@H](Cn1ccc(=O)[nH]c1=O)C(=O)N(C)CC(=O)N[C@@H](Cn1c(=O)[nH]c2ccccc2c1=O)C(=O)N[C@@H](Cn1c(=O)[nH]c2ccccc2c1=O)C(=O)N[C@@H](Cn1ccc(=O)[nH]c1=O)C(=O)N[C@@H](CCCN=C(N)N)C(N)=O` (Ac-R[Ala(uracil-1-yl)][Sar][Ala(2,4-dioxoquinazolin-3-yl)][Ala(2,4-dioxoquinazolin-3-yl)][Ala(uracil-1-yl)]R-NH2) showed a dissociation constant Kd of 610 µM.
As to `CC(=O)N[C@@H](CCCN=C(N)N)C(=O)N[C@@H](Cn1ccc(=O)[nH]c1=O)C(=O)N(C)CC(=O)N[C@@H](Cn1c(=O)[nH]c2ccccc2c1=O)C(=O)N[C@@H](Cn1c(=O)[nH]c2ccccc2c1=O)C(=O)N[C@@H](Cc1cccs1)C(=O)N[C@@H](CCCN=C(N)N)C(N)=O` (Ac-R[Ala(uracil-1-yl)][Sar][Ala(2,4-dioxoquinazolin-3-yl)][Ala(2,4-dioxoquinazolin-3-yl)][2Thi]R-NH2), the affinity, expressed as Kd, was 230 µM.
`CC(=O)N[C@@H](CCCN=C(N)N)C(=O)N[C@@H](Cn1ccc(=O)[nH]c1=O)C(=O)N(C)CC(=O)N[C@@H](Cn1c(=O)[nH]c2ccccc2c1=O)C(=O)N[C@@H](Cn1c(=O)[nH]c2ccccc2c1=O)C(=O)N[C@@H](Cn1cc(C)c(=O)[nH]c1=O)C(=O)N[C@@H](CCCN=C(N)N)C(N)=O` (Ac-R[Ala(uracil-1-yl)][Sar][Ala(2,4-dioxoquinazolin-3-yl)][Ala(2,4-dioxoquinazolin-3-yl)][X2]R-NH2) displayed a Kd of 490 µM.
With `CC(=O)N[C@@H](CCCN=C(N)N)C(=O)N[C@@H](Cn1ccc(=O)[nH]c1=O)C(=O)N(C)CC(=O)N[C@@H](Cn1cc(C)c(=O)[nH]c1=O)C(=O)N[C@@H](Cn1c(=O)[nH]c2ccccc2c1=O)C(=O)N[C@@H](Cn1cnc2c(N)ncnc21)C(=O)N[C@@H](CCCN=C(N)N)C(N)=O` (Ac-R[Ala(uracil-1-yl)][Sar][X2][Ala(2,4-dioxoquinazolin-3-yl)][X1]R-NH2) the figure was 220 µM; with `CC(=O)N[C@@H](CCCN=C(N)N)C(=O)N[C@@H](Cn1ccc(=O)[nH]c1=O)C(=O)N(C)CC(=O)N[C@@H](Cn1c(=O)[nH]c2ccccc2c1=O)C(=O)N[C@@H](Cn1c(=O)[nH]c2ccccc2c1=O)C(=O)N[C@@H](Cn1cnc2c(N)ncnc21)C(=O)N[C@@H](CCCN=C(N)N)C(N)=O` (Ac-R[Ala(uracil-1-yl)][Sar][Ala(2,4-dioxoquinazolin-3-yl)][Ala(2,4-dioxoquinazolin-3-yl)][X1]R-NH2), 390 µM.
`CC(=O)N[C@@H](CCCN=C(N)N)C(=O)N[C@@H](Cn1ccc(=O)[nH]c1=O)C(=O)N(C)CC(=O)N[C@@H](Cn1c(=O)[nH]c2ccccc2c1=O)C(=O)N[C@@H](Cn1c(=O)[nH]c2ccccc2c1=O)C(=O)N[C@@H](Cn1c(=O)[nH]c2ccccc2c1=O)C(=O)N[C@@H](CCCN=C(N)N)C(N)=O` (Ac-R[Ala(uracil-1-yl)][Sar][Ala(2,4-dioxoquinazolin-3-yl)][Ala(2,4-dioxoquinazolin-3-yl)][Ala(2,4-dioxoquinazolin-3-yl)]R-NH2) returned a Kd of 91 µM.
As to `CC(=O)N[C@@H](CCCN=C(N)N)C(=O)N[C@@H](Cn1ccc(=O)[nH]c1=O)C(=O)N(C)CC(=O)N[C@@H](Cn1c(=O)[nH]c2ccccc2c1=O)C(=O)N[C@@H](Cn1c(=O)[nH]c2ccccc2c1=O)C(=O)N[C@@H](Cn1ccc(N)nc1=O)C(=O)N[C@@H](CCCN=C(N)N)C(N)=O` (Ac-R[Ala(uracil-1-yl)][Sar][Ala(2,4-dioxoquinazolin-3-yl)][Ala(2,4-dioxoquinazolin-3-yl)][X3]R-NH2), the equilibrium dissociation constant (Kd) came to 630 µM.

Values taken from ChEMBL document CHEMBL1136420, “Comparison of library screening techniques used in the development of dsDNA ligands” (Bioorg Med Chem Lett, 2003).
